Data: patent US6455530B1, “2R,4S,S,S- and 2S,4R,S,S-hydroxyitraconazole” (Sepracor Inc., priority 1996, dated 2002)

How the values were obtained:
Candida albicans = assay: Kirby-Bauer testing (paper disk zones of inhibition); assay type: cell-based; conditions: 10 μl of 10 mg/mL solution on 7 mm paper disk, Sabouraud Dextrose agar, 30° C. for 16 hours
Protocol: (§1) Actively growing cultures of Candida albicans, Cryptococcus neoformens and Saccharomnyces cerevisiae were prepared as described above. The cultures were diluted to a 0.5 McFarland standard and swabbed onto a 150 mm Sabouraud Dextrose agar plates. Paper disks (7 mm) were placed onto the agar plates using a disk dispenser. Next 10 μl of 10 mg/mL solutions of each sample hydroxy-itraconazole was pipetted onto separate paper disks. The plates were then incubated at 30° C. for 16 hours. Zones of inhibition were then measured in mm. Data Represent Zones of Inhibition in mm.

Cryptococcus neoformens = assay: as above; assay type: cell-based; conditions: 10 μl of 10 mg/mL solution on 7 mm paper disk, Sabouraud Dextrose agar, 30° C. for 16 hours
Protocol: as §1

Saccharomyces cerevisae = assay: as above; assay type: cell-based; conditions: 10 μl of 10 mg/mL solution on 7 mm paper disk, Sabouraud Dextrose agar, 30° C. for 16 hours
Protocol: as §1

[1] = oral, daily administration; cited from earlier work

| SMILES | Zones of Inhibition, Candida albicans (Candida albicans) | Zones of Inhibition, Cryptococcus neoformens (Cryptococcus neoformens) | Zones of Inhibition, Saccharomyces cerevisae (Saccharomyces cerevisae) | Time at which peak plasma levels are attained [1] | zone of inhibition at 10000 µg/mL (Candida albicans; Candida albicans) | zone of inhibition at 10000 µg/mL (Cryptococcus neoformens; Cryptococcus) | zone of inhibition at 10000 µg/mL (Saccharomyces cerevisae; Saccharomyces) |
| --- | --- | --- | --- | --- | --- | --- | --- |
| C[C@H]([C@@H](C)O)n1ncn(-c2ccc(N3CCN(c4ccc(OC[C@@H]5CO[C@@](Cn6cncn6)(c6ccc(Cl)cc6Cl)O5)cc4)CC3)cc2)c1=O (single isomer, unassigned) [B diastereomer, (2S,4R)-4-[4-[4-[4-[[2-(2,4-Dichlorophenyl)-2-(1H-1,2,4,-triazole-1-ylmethyl)-1,3-dioxolan-4-yl}methoxy]phenyl]-1-piperazinyl]phenyl]-2,4-dihydro-2-[(1R*,2R*)-(2-hydroxy-1-methylpropyl)-3H-1,2,4-triazol-3-one] | 27 mm | 32 mm | 25 mm |  |  |  |  |
| CCC(C)n1ncn(-c2ccc(N3CCN(c4ccc(OCC5COC(Cn6cncn6)(c6ccc(Cl)cc6Cl)O5)cc4)CC3)cc2)c1=O (racemic) [± Itraconazole, 4-[4-[4-[4-[[2-(2,4-dichlorophenyl)-2-(1H-1,2,4-triazol-1-ylmethyl)-1,3-dioxolan-4-yl]methoxy]phenyl]-1-piperazinyl]phenyl]-2,4dihydro-2-(1-methylpropyl)-3H-1,2,4triazol-3-one, reference compound] |  |  |  | 15 days | 17 mm | 22 mm | 15 mm |
| C[C@H]([C@@H](C)O)n1ncn(-c2ccc(N3CCN(c4ccc(OC[C@H]5CO[C@](Cn6cncn6)(c6ccc(Cl)cc6Cl)O5)cc4)CC3)cc2)c1=O (single isomer, unassigned) [A diastereomer, (2R,4S)-4-[4-[4-[4-[[2-(2,4-Dichlorophenyl)-2-(1H-1,2,4-triazole-1-ylmethyl)-1,3-dioxolan-4-yl]methoxy]phenyl]-[-piperazinyl[phenyl]-2,4dihydro-2-[(1R*,2R*)-(2-hydroxy-1-methylpropyl)]-3H -1,2,4-triazol-3-one] | 23 mm | 34 mm | 23 mm |  |  |  |  |
